Drawing on ChEMBL document CHEMBL4828754, “Salicinoyl Quinic Acids and Their Prostaglandin E2 Production Inhibitory Activities from the Fruits of Casearia grewiifolia” (J Nat Prod, 2021), this text covers inhibition and IC50 for eight compounds.

In one experiment the test system is HaCaT. The experiment can be described thus: Inhibition of ultraviolet B-irradiation upregulated of prostaglandin E2 production in human HaCaT cells at 10 uM measured after 2 hrs by ELISA relative to control. In kind it is functional, cell-based.
Experiment [1] can be described thus: Inhibition of ultraviolet B-irradiation upregulated of prostaglandin E2 production in human HaCaT cells measured after 2 hrs by ELISA. In kind it is functional, cell-based. Conditions: light or radiation study.

Each structure is given as a SMILES string. Calls of active or inactive are those of the source. The calls are words filed in the database; no cut-off is given here.

For the compound `OCc1ccccc1O[C@@H]1O[C@H](CO)[C@@H](O)[C@H](O)[C@H]1O`, the inhibition entry in the experiment on HaCaT was “inactive”.

For the compound `CC(=O)O[C@@H]1C[C@](O)(C(=O)OCc2ccccc2O[C@@H]2O[C@H](CO)[C@@H](O)[C@H](O)[C@H]2O)C[C@@H](O)[C@H]1OC(=O)/C=C/c1ccccc1`, in the experiment with HaCaT, the inhibition entry was “Active”. The same measure, in the same setting: the entry for `CC(=O)O[C@@H]1[C@H](OC(C)=O)C[C@@](OC(=O)/C=C/c2ccccc2)(C(=O)OCc2ccccc2O[C@@H]2O[C@H](CO)[C@@H](O)[C@H](O)[C@H]2O)C[C@H]1O[C@@H]1O[C@H](CO)[C@@H](O)[C@H](O)[C@H]1O` is “Active”.

In turn, `COC(=O)[C@]1(O)C[C@@H](O)[C@@H](OC(=O)/C=C/c2ccccc2)[C@H](O)C1` registered an IC50 in experiment [1] of 28.8 µM.

Consider `COC(=O)[C@]1(O)C[C@@H](O)[C@@H](OC(=O)c2ccccc2)[C@H](O[C@@H]2O[C@@H](C)[C@H](O)[C@@H](O)[C@H]2O)C1`, for which, in the experiment on HaCaT, the inhibition entry is “Active”. Take `CC(=O)Oc1ccccc1C(=O)O` [ASPIRIN]: the IC50 in experiment [1] turned out to be 30.4 µM.

Regarding `Oc1ccc(/C=C/c2cc(O)cc(O)c2)cc1` [RESVERATROL], in experiment [1], the midpoint of inhibition, the IC50, lay at 35.1 µM.

As to `CC(=O)O[C@@H]1C[C@](O)(C(=O)OCc2ccccc2O[C@@H]2O[C@H](CO)[C@@H](O)[C@H](O)[C@H]2O)C[C@@H](OC(C)=O)[C@H]1OC(=O)/C=C/c1ccccc1`, the midpoint of inhibition in experiment [1], the IC50, lay at 20.5 µM.
